{"source": "patent US11491120B2", "about": "“Pharmacological prophylactics against stress-induced affective disorders in females” (The Trustees of Columbia University in the City of New York, priority 2017, dated 2022)", "system": "female 129S6/SvEv mice", "assay": "Contextual fear conditioning (CFC), 3-shock, freezing in training and context re-exposure", "key": {"[1]": {"settings": "Contextual Fear Conditioning Re-exposure, Dunnett test Sal vs. drug (2.5), 1 week prophylactic drug"}, "[2]": {"settings": "Contextual Fear Conditioning Re-exposure, Dunnett test Sal vs. drug (10), 1 week prophylactic drug"}, "[3]": {"settings": "Contextual Fear Conditioning Training, Dunnett test Sal vs. drug (0.025), 1 week prophylactic drug"}, "[4]": {"settings": "Contextual Fear Conditioning Training, Dunnett test Sal vs. drug (0.075), 1 week prophylactic drug"}, "[5]": {"settings": "Contextual Fear Conditioning Training, Dunnett test Sal vs. drug (0.1), 1 week prophylactic drug"}, "[6]": {"settings": "Contextual Fear Conditioning Training, Dunnett test Sal vs. drug (0.3), 1 week prophylactic drug"}, "[7]": {"settings": "Contextual Fear Conditioning Training, Dunnett test Sal vs. drug (2.5), 1 week prophylactic drug"}, "[8]": {"settings": "Contextual Fear Conditioning Training, Dunnett test Sal vs. drug (10), 1 week prophylactic drug"}, "[9]": {"settings": "Ovariectomized cohort, 1 week prophylactic drug, Contextual Fear Conditioning Re-exposure, FIG. 10B, Sham mice, K (10), (2R,6R)-HNK (0.025)"}, "[10]": {"settings": "Ovariectomized cohort, 1 week prophylactic drug, Contextual Fear Conditioning Re-exposure, FIG. 10C, Sham mice, K (10), (2R,6R)-HNK (0.025)"}, "[11]": {"settings": "Ovariectomized, E2/P4 replacement, 1 week prophylactic drug, Contextual Fear Conditioning Training, FIG. 10D, Vehicle vs E2/P4, same drug, K (10), (2R,6R)-HNK (0.025)"}, "[12]": {"settings": "Sal vs. (2R,6R)-HNK (0.025), Fisher's PLSD, 1 week prophylactic drug, learned helplessness stress, Contextual Fear Conditioning Re-exposure"}, "[13]": {"settings": "Sal vs. (2R,6R)-HNK (0.025), Fisher's PLSD, Stress, antidepressant drug/Contextual Fear Conditioning Training"}}, "note": "“Also recorded” adds a separate entry of the source.", "data": [{"smiles": "N[C@@]1(c2ccccc2Cl)CCC[C@@H](O)C1=O", "note": "[(2R,6R)-HNK, (2R,6R)-hydroxynorketamine]", "values": [{"measurement": "p, Freezing (min 2)", "setting": "[1]", "value": 0.2365}, {"measurement": "p, Freezing (min 3)", "setting": "[1]", "value": 0.4707}, {"measurement": "p, Freezing (min 4)", "setting": "[1]", "value": 0.3440}, {"measurement": "p, Freezing (min 5)", "setting": "[1]", "value": 0.9997}, {"measurement": "p, Freezing (min 1-5)", "setting": "[2]", "value": 0.9991}, {"measurement": "p, Freezing (min 2)", "setting": "[2]", "value": 0.9994}, {"measurement": "p, Freezing (min 3)", "setting": "[2]", "value": 0.9074}, {"measurement": "p, Freezing (min 4)", "setting": "[2]", "value": 0.9994}, {"measurement": "p, Freezing (min 5)", "setting": "[2]", "value": 0.9003}, {"measurement": "p, Freezing (min 1-5)", "setting": "[3]", "value": 0.7272}, {"measurement": "p, Freezing (min 4)", "setting": "[3]", "value": 0.9640}, {"measurement": "p, Freezing (min 5)", "setting": "[3]", "value": 0.9668}, {"measurement": "p, Freezing (min 1-5)", "setting": "[4]", "value": 0.9917}, {"measurement": "p, Freezing (min 4)", "setting": "[4]", "value": 0.9911}, {"measurement": "p, Freezing (min 5)", "setting": "[4]", "value": 0.9993}, {"measurement": "p, Freezing (min 1-5)", "setting": "[5]", "value": 0.6657}, {"measurement": "p, Freezing (min 4)", "setting": "[5]", "value": ">0.9999"}, {"measurement": "p, Freezing (min 5)", "setting": "[5]", "value": 0.2588}, {"measurement": "p, Freezing (min 1-5)", "setting": "[6]", "value": 0.9992}, {"measurement": "p, Freezing (min 4)", "setting": "[6]", "value": 0.9477}, {"measurement": "p, Freezing (min 5)", "setting": "[6]", "value": ">0.9999"}, {"measurement": "p, Freezing (min 1-5)", "setting": "[7]", "value": 0.9993}, {"measurement": "p, Freezing (min 4)", "setting": "[7]", "value": 0.9991}, {"measurement": "p, Freezing (min 5)", "setting": "[7]", "value": 0.9997}, {"measurement": "p, Freezing (min 1-5)", "setting": "[8]", "value": 0.1798}, {"measurement": "p, Freezing (min 4)", "setting": "[8]", "value": 0.4387}, {"measurement": "p, Freezing (min 5)", "setting": "[8]", "value": 0.3423}, {"measurement": "p, Freezing (min 1-5), Fisher's PLSD, OVX Sal vs OVX drug", "setting": "Ovariectomized cohort, 1 week prophylactic drug, Contextual Fear Conditioning Re-exposure, FIG. 10B, OVX mice, K (10), (2R,6R)-HNK (0.025)", "value": 0.2290}, {"measurement": "* (significance), Freezing (min 1-5), Fisher's PLSD, Sham Sal vs Sham drug", "setting": "[9]", "value": "* (* p<0.05)"}, {"measurement": "p, Freezing (min 1-5), Fisher's PLSD, Sham Sal vs Sham drug", "setting": "[9]", "value": 0.0244}, {"measurement": "p, Freezing (min 1-5), Fisher's PLSD, Sham drug vs OVX drug", "setting": "Ovariectomized cohort, 1 week prophylactic drug, Contextual Fear Conditioning Re-exposure, FIG. 10B, Sham vs OVX, same drug, K (10), (2R,6R)-HNK (0.025)", "value": 0.3764}, {"measurement": "p, Freezing Average (min 1-5), Fisher's PLSD, OVX Sal vs OVX drug", "setting": "Ovariectomized cohort, 1 week prophylactic drug, Contextual Fear Conditioning Re-exposure, FIG. 10C, OVX mice, K (10), (2R,6R)-HNK (0.025)", "value": 0.2290}, {"measurement": "* (significance), Freezing Average (min 1-5), Fisher's PLSD, Sham Sal vs Sham drug", "setting": "[10]", "value": "* (* p<0.05)"}, {"measurement": "p, Freezing Average (min 1-5), Fisher's PLSD, Sham Sal vs Sham drug", "setting": "[10]", "value": 0.0244}, {"measurement": "p, Freezing Average (min 1-5), Fisher's PLSD, Sham drug vs OVX drug", "setting": "Ovariectomized cohort, 1 week prophylactic drug, Contextual Fear Conditioning Re-exposure, FIG. 10C, Sham vs OVX, same drug, K (10), (2R,6R)-HNK (0.025)", "value": 0.3764}, {"measurement": "p, Freezing (min 1-5), Fisher's PLSD, E2/P4 Sal vs E2/P4 drug", "setting": "Ovariectomized, E2/P4 replacement, 1 week prophylactic drug, Contextual Fear Conditioning Re-exposure, FIG. 10E, E2/P4 mice, K (10), (2R,6R)-HNK (0.025)", "value": 0.4219}, {"measurement": "p, Freezing (min 1-5), Fisher's PLSD, Vehicle Sal vs Vehicle drug", "setting": "Ovariectomized, E2/P4 replacement, 1 week prophylactic drug, Contextual Fear Conditioning Re-exposure, FIG. 10E, Vehicle (hormone) mice, K (10), (2R,6R)-HNK (0.025)", "value": 0.9324}, {"measurement": "p, Freezing (min 1-5), Fisher's PLSD, Vehicle drug vs E2/P4 drug", "setting": "Ovariectomized, E2/P4 replacement, 1 week prophylactic drug, Contextual Fear Conditioning Re-exposure, FIG. 10E, Vehicle vs E2/P4, same drug, K (10), (2R,6R)-HNK (0.025)", "value": 0.5588}, {"measurement": "p, Freezing Average (min 1-5), Fisher's PLSD, E2/P4 Sal vs E2/P4 drug", "setting": "Ovariectomized, E2/P4 replacement, 1 week prophylactic drug, Contextual Fear Conditioning Re-exposure, FIG. 10F, E2/P4 mice, K (10), (2R,6R)-HNK (0.025)", "value": 0.4219}, {"measurement": "p, Freezing Average (min 1-5), Fisher's PLSD, Vehicle Sal vs Vehicle drug", "setting": "Ovariectomized, E2/P4 replacement, 1 week prophylactic drug, Contextual Fear Conditioning Re-exposure, FIG. 10F, Vehicle (hormone) mice, K (10), (2R,6R)-HNK (0.025)", "value": 0.9324}, {"measurement": "p, Freezing Average (min 1-5), Fisher's PLSD, Vehicle drug vs E2/P4 drug", "setting": "Ovariectomized, E2/P4 replacement, 1 week prophylactic drug, Contextual Fear Conditioning Re-exposure, FIG. 10F, Vehicle vs E2/P4, same drug, K (10), (2R,6R)-HNK (0.025)", "value": 0.5588}, {"measurement": "p, Freezing (min 1-5), Fisher's PLSD, E2/P4 Sal vs E2/P4 drug", "setting": "Ovariectomized, E2/P4 replacement, 1 week prophylactic drug, Contextual Fear Conditioning Training, FIG. 10D, E2/P4 mice, K (10), (2R,6R)-HNK (0.025)", "value": 0.7901}, {"measurement": "p, Freezing (min 1-5), Fisher's PLSD, Vehicle Sal vs Vehicle drug", "setting": "Ovariectomized, E2/P4 replacement, 1 week prophylactic drug, Contextual Fear Conditioning Training, FIG. 10D, Vehicle (hormone) mice, K (10), (2R,6R)-HNK (0.025)", "value": 0.6290}, {"measurement": "* (significance), Freezing (min 1-5), Fisher's PLSD, Vehicle drug vs E2/P4 drug", "setting": "[11]", "value": "** (** p<0.01)"}, {"measurement": "p, Freezing (min 1-5), Fisher's PLSD, Vehicle drug vs E2/P4 drug", "setting": "[11]", "value": 0.0067}, {"measurement": "*, Freezing (min 1)", "setting": "[12]", "value": "* (* p<0.05)"}, {"measurement": "p, Freezing (min 1)", "setting": "[12]", "value": 0.0399}, {"measurement": "p, Freezing (min 5)", "setting": "Sal vs. (2R,6R)-HNK (0.025), Fisher's PLSD, 3 day prophylactic drug/Contextual Fear Conditioning Training", "value": 0.9911}, {"measurement": "p, Freezing (min 1-5)", "setting": "[13]", "value": 0.2199}, {"measurement": "p, Freezing (min 5)", "setting": "[13]", "value": 0.0731}, {"measurement": "p, Freezing Average (min 1-5)", "setting": "Sal vs. (2R,6R)-HNK (0.025), t-test, 24 hour prophylactic drug/Contextual Fear Conditioning Re-exposure", "value": 0.2334}, {"measurement": "Freezing during CFC Training, E2/P4+drug vs vehicle+drug", "setting": "ovariectomized mice, hormone replacement", "value": "froze significantly more; also recorded: exhibited increased freezing"}, {"measurement": "Freezing during CFC re-exposure vs saline", "setting": "ovariectomized mice, vehicle condition", "value": "froze at comparable levels"}, {"measurement": "Freezing during re-exposure to the CFC training context vs saline", "setting": "single i.p. injection 1 week before 3-shock CFC, all doses, female mice", "value": "do not significantly alter freezing; also recorded: did not alter overall freezing"}, {"measurement": "Attenuation of learned fear", "setting": "single injection 1 week before stressor, female mice", "value": "do not alter learned fear; also recorded: do not attenuate learned fear"}]}]}
